Experimental data published in publication PMC5674125, “Towards eco-friendly crop protection: natural deep eutectic solvents and defensive secondary metabolites” (Phytochemistry Reviews, 2017).

Legend:
Helicoverpa zea = test system: Helicoverpa zea; parameters: method as in Summers and Felton (1994); details: 4 mM, ref Summers and Felton (1994), cited from earlier work
[1] = test system: Frankliniella occidentalis; parameters: method as in Leiss et al. (2009a); details: 5% (5 mg/ml); ref Leiss et al. (2009a); cited from earlier work
Spodoptera litura = details: 0.7–0.8 µg/ml; ref Mallikarjuna et al. (2004); cited from earlier work
Dalbulus maidis = test system: Dalbulus maidis; parameters: method as in Dowd and Vega (1996); details: adults, 400 ppm, in vitro bioassay; ref Dowd and Vega (1996); cited from earlier work
Trichoplusia ni = test system: Trichoplusia ni; parameters: method as in Beninger et al. (2004); details: 100 ppm (2.8 mM) and 1000 ppm (28 mM); ref Beninger et al. (2004); cited from earlier work
Lymantria dispar [2] = test system: Lymantria dispar; parameters: method as in Beninger et al. (2004); details: 100 ppm (2.8 mM) and 1000 ppm (28 mM); ref Beninger et al. (2004); cited from earlier work
Plagiodera versicolora = test system: Plagiodera versicolora; parameters: method as in Jassbi (2003); details: ref Jassbi (2003); cited from earlier work
Agelastica alni = test system: Agelastica alni; parameters: method as in Ikonen et al. (2002); details: 2.48% by weight, dual choice bioassay; ref Ikonen et al. (2002); cited from earlier work
[3] = Solubility in natural deep eutectic solvents (saturated solutions, UV-VIS); type: physicochemical; details: 1,2-propanediol: choline chloride: water (1:1:1), water 7.71%; 24 h at 50 °C; mean ± SD, n = 3
Procedure: As an extension of these studies, we have investigated the solubility of six insecticidal metabolites in a variety of NADES. The solvent selection framework consisted of the following steps: • Preliminary solvent screening: a pre-selected set of 20 NADES was used as a starting point to identify and rank potential NADES candidates (Table 3). Selection constraints were imposed on important properties such as viscosity and stability.
• Secondary screening: solubility tests were performed to determine the best solvent for each of the metabolites. Saturated solutions, generated by adding an excess amount of each compound to different NADES, were kept under constant stirring (1100 rpm) for 24 h at 50 °C. The 20 candidates were ranked in decreasing order of solvent power. • Solubility verification: For the verification of solubilities, samples were centrifuged for 5 min at 2000 rpm and subsequently diluted suitably with methanol for spectrophotometric analysis (UV-1800 UV–VIS spectrophotometer, Shimadzu Europe GmbH, Duisburg, Germany).

Lymantria dispar [4] = test system: Lymantria dispar; parameters: method as in Beninger and Abou-Zaid (1997); details: 0.05%, day 15; ref Beninger and Abou-Zaid (1997); cited from earlier work
Helicoverpa armigera [5] = test system: Helicoverpa armigera; parameters: method as in Li et al. (2016); details: ref Li et al. (2016), cited from earlier work
Helicoverpa armigera [6] = test system: Helicoverpa armigera; parameters: method as in Liu et al. (2015); details: 3 and 10 mg/g; ref Liu et al. (2015); cited from earlier work
Spodoptera frugiperda [7] = test system: Spodoptera frugiperda; parameters: method as in Gallo et al. (2006); details: 0.1 mg/g; ref Gallo et al. (2006); cited from earlier work
Aphis fabae = test system: Aphis fabae; parameters: method as in Lattanzio et al. (2000); details: 0.1 M; ref Lattanzio et al. (2000); cited from earlier work
Acyrthosiphon pisum = test system: Acyrthosiphon pisum; parameters: method as in Goławska et al. (2014); details: ref Goławska et al. (2014), cited from earlier work
[8] = ref Dai et al. (2013, 2015); cited from earlier work
Spodoptera frugiperda [9] = test system: Spodoptera frugiperda; parameters: method as in Diaz Napal and Palacios (2015); details: 100 µg/cm^2; ref Diaz Napal and Palacios (2015); cited from earlier work
Bactrocera Cucurbitae = test system: Bactrocera Cucurbitae; parameters: method as in Sharma and Sohal (2013); details: 125 ppm; ref Sharma and Sohal (2013); cited from earlier work
Pieris rassicae = test system: Pieris rassicae; parameters: method as in Onkokesung et al. (2014); details: applied exogenously at 100 µM; ref Onkokesung et al. (2014); cited from earlier work

O=C(/C=C/c1ccc(O)c(O)c1)O[C@@H]1C[C@](O)(C(=O)O)C[C@@H](O)[C@H]1O [Chlorogenic acid]
Prooxidant effect on midgut proteins (Helicoverpa zea; chronic exposure): oxidative stress in midgut proteins | Development rate, survivorship and pupal weight (Helicoverpa zea): Development rate and pupal weight are negatively influenced | Relative growth rate and survival of first instar larva [1]: Reduced relative growth rate and survival of first instar larva at 5% (5 mg/ml) | Development (Spodoptera litura): Developmental retardation | Larval mortality (Spodoptera litura): > 60% | Antifeedant activity (Dalbulus maidis): Antifeedant activity in adults at 400 ppm (in vitro bioassay) | Larval growth and development (Trichoplusia ni): Reduced larval growth and development at 100 ppm (2.8 mM) and 1000 ppm (28 mM) | Larval growth and development (Lymantria dispar [2]): Reduced larval growth and development at 100 ppm (2.8 mM) and 1000 ppm (28 mM) | Amount with antifeedant activity (Plagiodera versicolora): Antifeedant activity above 50 µg/disk | Feeding deterrence (Agelastica alni): Feeding deterrent at concentration of 2.48% by weight (dual choice bioassay)

O=c1c(O)c(-c2ccc(O)c(O)c2)oc2cc(O)cc(O)c12 [Quercetin]
Solubility [3]: 44.34 ± 0.76 mg/g | Larval weight reduction (Lymantria dispar [4]): Larval growth inhibitor. Larval weight reduced by 33% at 0.05% at day 15 | Reduction of pupation (Helicoverpa armigera [5]; 8 mg/g): 50% | Reduction of larval weight (Helicoverpa armigera [5]; 16 mg/g): ~50% | Mortality (Helicoverpa armigera [5]; 32 mg/g): > 80% | Development (Spodoptera litura): Developmental retardation | Larval mortality (Spodoptera litura): > 60% | Growth, pupation, adult emergence, survival (Helicoverpa armigera [6]): Deleterious effects growth, pupation and adult emergence, and survivalat 3 and 10 mg/g | Larval mortality (Spodoptera frugiperda [7]): 78% Larval mortality at 0.1 mg/g | Progeny deposition (Aphis fabae): Inhibitory activity on progeny deposition 0.1 M | Probing and feeding deterrence (Acyrthosiphon pisum; 100 µg cm^−3): Probing and feeding deterrent | Mortality, development time, fecundity (Acyrthosiphon pisum; higher concentration than 100 µg cm^−3): mortality and development time are increased whereas fecundity is decreased | Solubility in NADES compared to aqueous solubility [8]: significantly increased | Feeding deterrence (Spodoptera frugiperda [9]): Feeding deterrent (57%) at 100 µg/cm^2 | Food assimilation, larval and pupal weight (Bactrocera Cucurbitae): Growth regulator and or deterrent: reduction in food assimilation as well as larval and pupal weight at 125 ppm

C[C@@H]1O[C@@H](Oc2cc(O)c3c(=O)c(O[C@@H]4O[C@@H](C)[C@H](O)[C@@H](O)[C@H]4O)c(-c4ccc(O)cc4)oc3c2)[C@H](O)[C@H](O)[C@H]1O [kaempferol 3-O-rhamnoside 7-O-rhamnoside]
Growth (Pieris rassicae): Growth negatively affected
